In patent US9187455B2, “Substituted pyridazines as PDE10A inhibitors” (Hoffmann-La Roche Inc., priority 2009, dated 2015):

The compounds below were run against T1, PDE10A2 (Homo sapiens, UniProt Q9Y233) (assay: PDE10A2 Scintillation Proximity Assay (SPA), [3H]-cGMP hydrolysis). Conditions: catalytic domain of human PDE10A2 (S449-D789), 0.25 nM enzyme, 50 nM cGMP + 50 nM [3H]-cGMP, 30 minutes at room temperature; read-out: PDE10A2 inhibition IC50.
T1 construct: residues serine 449 to aspartate 789; His6 (H6) with Gateway linker and thrombin cleavage site (N, cleaved yes); made in house; host or cells: E. coli BL21(DE3) pLysS
Format: biochemical
Method: The following tests were carried out in order to determine the activity of the compounds of the present invention. PDE10 activity of the compounds of the present invention is determined using a Scintillation Proximity Assay (SPA)-based method similar to the one previously described (Fawcett, L. et al., ProcNatl Acad Sci USA (2000) 97(7):3702-3707).
PDE10A1 and PDE10A2 are two splice variants of PDE10A. There are these 2 splice variants known, which differ in the N-terminal part of the protein. The catalytic domains of PDE10A1 and PDE10A2 are identical. The assay for PDE10A2 described below is therefore also representative for PDE10A1 and also for PDE10A in general.
The PDE10A2 assay was performed in a two step procedure in 96-well micro titer plates. The reaction mixture of 80 μl contained 20 mM HEPES/10 mM MgCl2/[…] (pH 7.5), 50 nM cGMP (Sigma) and 50 nM [^3H]-cGMP (GE Healthcare), 0.25 nM PDE10A2 with or without a specific test compound. A range of concentrations of the potential inhibitor was used to generate data for calculating the concentration of inhibitor resulting in 50% of the effect (e.g. IC50, the concentration of the competitor inhibiting PDE10A2 activity 50%). Non-specific activity was tested without the enzyme. The reaction was initiated by addition of the substrate solution (cGMP and [^3H]-cGMP) and allowed to progress for 30 minutes at room temperature. The reaction was terminated by transferring 50 μl of the reaction mixture into an OptiPlate (Perkin Elmer) containing 25 μl of YSi-SPA scintillation beads (GE Healthcare) in 18 mM zinc sulphate solution (stop reagent). After 1 h under shaking, the plate was centrifuged one minute at 1000 rpm to allow beads to settle. Afterwards, radioactive counts were measured on a Perkin Elmer TopCount Scintillation plate reader.
The catalytic domain of human PDE10A2, residues serine 449 to aspartate 789, was amplified by PCR using cDNA (Origene) and the oligonucleotides 5′-GGGGACAAGTTTGT […]-3′ (with AttB1 recombination site in bold and thrombin protease cleavage site in italics) and 5′-[…]-3′ (with AttB2 recombination site in bold) which conferred Gateway recombination sites. The PCR product was used in a BP recombination reaction with pDONR221 to generate pENTR Thm-PDE10A2(S449-D789) which was DNA sequence verified and then used in an LR recombination reaction with a Gateway modified version of pET11a. The resulting expression vector, placT7.2H6-(gwl)-Thm-PDE10A2(S449-D789) was DNA sequence confirmed and transformed into E. coli strain BL21(DE3) pLysS and recombinant protein was produced in TB medium at 20° C. by induction to a final IPTG concentration of 0.5 mM at an optical density of 1.0 at 600 nm for 20 hours. About 30% of the protein was in the soluble fraction of the cell homogenate. The protein was purified using sequential chromatography on Ni-NTA and HiTrapQ/HiTrapS. After thrombin digest at room temperature a HiTrapChelating/HiTrap Benzamindin chromatography removed impurities, uncleaved protein and thrombin. Final purification of PDE10A2(S449-D789) was performed on a Superdex 75 size exclusion chromatography equilibrated with 25 mM HEPES pH 8.4, 0.15 M NaCl. The yield of pure protein was 2 mg/liter of culture volume is relatively low. The purity of the protein was >95%, monomeric and monodisperse as shown by SDS-PAGE, HPLC and analytical ultracentrifugation.

T1 sequence (Q9Y233 715-1055): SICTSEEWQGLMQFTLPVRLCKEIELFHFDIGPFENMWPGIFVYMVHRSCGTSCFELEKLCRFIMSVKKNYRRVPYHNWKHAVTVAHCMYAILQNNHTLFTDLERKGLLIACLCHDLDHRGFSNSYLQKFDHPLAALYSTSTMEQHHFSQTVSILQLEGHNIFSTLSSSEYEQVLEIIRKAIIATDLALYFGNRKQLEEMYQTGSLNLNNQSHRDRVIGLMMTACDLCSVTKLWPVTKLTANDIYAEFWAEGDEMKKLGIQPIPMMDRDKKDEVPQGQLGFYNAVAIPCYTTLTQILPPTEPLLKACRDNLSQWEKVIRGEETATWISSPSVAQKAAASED

**Q.** Which IC50 does the source give for `O=c1ccn(-c2ccnc(Cl)c2)nc1-c1ccnn1-c1ccnc2ccccc12` [Example 54, 1-(2-Chloro-pyridin-4-yl)-3-(2-quinolin-4-yl-2H-pyrazol-3-yl)-1H-pyridazin-4-one] here?
**A.** 66 nM

**Q.** With `CS(=O)(=O)c1cncc(-n2ccc(=O)c(-c3ccnn3-c3cccc(F)c3)n2)c1` [Example 45, 3-[2-(3-Fluoro-phenyl)-2H-pyrazol-3-yl]-1-(5-methanesulfonyl-pyridin-3-yl)-1H-pyridazin-4-one] as the compound, how does the IC50 read?
**A.** 259 nM

**Q.** Which IC50 does the source give for `O=c1ccn(-c2ccc3ncccc3c2)nc1-c1ccnn1-c1cccc(Cl)c1` [Example 103, 3-[2-(3-Chloro-phenyl)-2H-pyrazol-3-yl]-1-quinolin-6-yl-1H-pyridazin-4-one] here?
**A.** 7 nM

**Q.** For `O=c1ccn(-c2cccnc2)nc1-c1ccnn1-c1ccccn1` [Example 33, 1-Pyridin-3-yl-3-(2-pyridin-2-yl-2H-pyrazol-3-yl)-1H-pyridazin-4-one], which IC50 is on record?
**A.** 2940 nM

**Q.** `CN(C)S(=O)(=O)c1cccc(-n2nccc2-c2nn(-c3ccncc3)ccc2=O)c1` [Example 28, N,N-Dimethyl-3-[5-(4-oxo-1-pyridin-4-yl-1,4-dihydro-pyridazin-3-yl)-pyrazol-1-yl]-benzenesulfonamide] was tested. Which IC50 did it give?
**A.** 3230 nM

**Q.** With `O=c1ccn(-c2cncc(C(F)(F)F)c2)nc1-c1ccnn1-c1cccc(Cl)c1` [Example 67, 3-[2-(3-Chloro-phenyl)-2H-pyrazol-3-yl]-1-(5-trifluoromethyl-pyridin-3-yl)-1H-pyridazin-4-one] as the compound, how does the IC50 read?
**A.** 56 nM

**Q.** For `O=c1ccn(-c2cccnc2)nc1-c1ccnn1-c1ccc2c(c1)OCCO2` [Example 34, 3-[2-(2,3-Dihydro-benzo[1,4]dioxin-6-yl)-2H-pyrazol-3-yl]-1-pyridin-3-yl-1H-pyridazin-4-one], which IC50 is on record?
**A.** 81 nM

**Q.** Which IC50 does the source give for `NS(=O)(=O)c1ccc(-n2nccc2-c2nn(-c3ccncc3)ccc2=O)cc1` [Example 8, 4-[5-(4-Oxo-1-pyridin-4-yl-1,4-dihydro-pyridazin-3-yl)-pyrazol-1-yl]-benzenesulfonamide] here?
**A.** 6330 nM

**Q.** `O=c1ccn(-c2ccncc2)nc1-c1ccnn1-c1cccc(Cl)c1` [Example 18, 3-[2-(3-Chloro-phenyl)-2H-pyrazol-3-yl]-1-pyridin-4-yl-1H-pyridazin-4-one] was tested. Which IC50 did it give?
**A.** 140 nM

**Q.** With `N#Cc1ccc(-n2ccc(=O)c(-c3ccnn3-c3ccccc3F)n2)cn1` [Example 76, 5-{3-[2-(2-Fluoro-phenyl)-2H-pyrazol-3-yl]-4-oxo-4H-pyridazin-1-yl}-pyridine-2-carbonitrile] as the compound, how does the IC50 read?
**A.** 619 nM

**Q.** `O=c1ccn(-c2cncc(Cl)c2)nc1-c1ccnn1-c1cccc(Cl)c1` [Example 53, 3-[2-(3-Chloro-phenyl)-2H-pyrazol-3-yl]-1-(5-chloro-pyridin-3-yl)-1H-pyridazin-4-one] was tested. Which IC50 did it give?
**A.** 65 nM

**Q.** How did the IC50 turn out when `CS(=O)(=O)c1cc(-n2ccc(=O)c(-c3ccnn3-c3cccc4ccccc34)n2)ccn1` [Example 16, 1-(2-Methanesulfonyl-pyridin-4-yl)-3-(2-naphthalen-1-yl-2H-pyrazol-3-yl)-1H-pyridazin-4-one] was run?
**A.** 15 nM

**Q.** Which IC50 does the source give for `O=c1ccn(-c2ccnc(Cl)c2)nc1-c1ccnn1-c1ccnc2ccc(F)cc12` [Example 55, 1-(2-Chloro-pyridin-4-yl)-3-[2-(6-fluoro-quinolin-4-yl)-2H-pyrazol-3-yl]-1H-pyridazin-4-one] here?
**A.** 122 nM

**Q.** With `N#Cc1cc(-n2ccc(=O)c(-c3ccnn3-c3ccccc3F)n2)ccn1` [Example 96, 4-{3-[2-(2-Fluoro-phenyl)-2H-pyrazol-3-yl]-4-oxo-4H-pyridazin-1-yl}-pyridine-2-carbonitrile] as the compound, how does the IC50 read?
**A.** 308 nM

**Q.** For `O=c1ccn(-c2cncc(Cl)c2)nc1-c1ccnn1-c1ccnc2ccccc12` [Example 51, 1-(5-Chloro-pyridin-3-yl)-3-(2-quinolin-4-yl-2H-pyrazol-3-yl)-1H-pyridazin-4-one], which IC50 is on record?
**A.** 20 nM

**Q.** `O=c1ccn(-c2ccncc2)nc1-c1ccnn1-c1cccc2cccnc12` [Example 26, 1-Pyridin-4-yl-3-(2-quinolin-8-yl-2H-pyrazol-3-yl)-1H-pyridazin-4-one] was tested. Which IC50 did it give?
**A.** 806 nM

**Q.** How did the IC50 turn out when `O=c1ccn(-c2cnc3ccccc3c2)nc1-c1ccnn1-c1ccccc1F` [Example 78, 3-[2-(2-Fluoro-phenyl)-2H-pyrazol-3-yl]-1-quinolin-3-yl-1H-pyridazin-4-one] was run?
**A.** 38 nM

**Q.** Which IC50 does the source give for `Cc1cc(-n2ccc(=O)c(-c3ccnn3-c3ccc4c(c3)OCCO4)n2)ccn1` [Example 38, 3-[2-(2,3-Dihydro-benzo[1,4]dioxin-6-yl)-2H-pyrazol-3-yl]-1-(2-methyl-pyridin-4-yl)-1H-pyridazin-4-one] here?
**A.** 437 nM

**Q.** Which IC50 does the source give for `O=C(O)c1cccc(-n2nccc2-c2nn(-c3ccncc3)ccc2=O)c1` [Example 5, 3-[5-(4-Oxo-1-pyridin-4-yl-1,4-dihydro-pyridazin-3-yl)-pyrazol-1-yl]-benzoic acid] here?
**A.** 899 nM

**Q.** `O=c1ccn(-c2ccncc2)nc1-c1ccnn1-c1cccc2cnccc12` [Example 21, 3-(2-Isoquinolin-5-yl-2H-pyrazol-3-yl)-1-pyridin-4-yl-1H-pyridazin-4-one] was tested. Which IC50 did it give?
**A.** 28 nM

**Q.** How did the IC50 turn out when `O=c1ccn(-c2cncc(OC(F)F)c2)nc1-c1ccnn1-c1ccccc1F` [Example 74, 1-(5-Difluoromethoxy-pyridin-3-yl)-3-[2-(2-fluoro-phenyl)-2H-pyrazol-3-yl]-1H-pyridazin-4-one] was run?
**A.** 27 nM

**Q.** How did the IC50 turn out when `O=c1ccn(-c2cncc(Cl)c2)nc1-c1ccnn1-c1ccnc2ccc(F)cc12` [Example 52, 1-(5-Chloro-pyridin-3-yl)-3-[2-(6-fluoro-quinolin-4-yl)-2H-pyrazol-3-yl]-1H-pyridazin-4-one] was run?
**A.** 177 nM

**Q.** How did the IC50 turn out when `Cc1cncc(-n2ccc(=O)c(-c3ccnn3-c3ccccc3F)n2)c1` [Example 90, 3-[2-(2-Fluoro-phenyl)-2H-pyrazol-3-yl]-1-(5-methyl-pyridin-3-yl)-1H-pyridazin-4-one] was run?
**A.** 90 nM

**Q.** For `COC(=O)c1cccc(-n2nccc2-c2nn(-c3ccncc3)ccc2=O)c1` [Example 10, 3-[5-(4-Oxo-1-pyridin-4-yl-1,4-dihydro-pyridazin-3-yl)-pyrazol-1-yl]-benzoic acid methyl ester], which IC50 is on record?
**A.** 48 nM

**Q.** For `O=c1ccn(-c2ccncc2)nc1-c1ccnn1-c1cccc(Br)c1` [Example 97, 3-[2-(3-Bromo-phenyl)-2H-pyrazol-3-yl]-1-pyridin-4-yl-1H-pyridazin-4-one], which IC50 is on record?
**A.** 17 nM

**Q.** With `O=c1ccn(-c2ccc(C(F)(F)F)nc2)nc1-c1ccnn1-c1cccc2ncccc12` [Example 80, 3-(2-Quinolin-5-yl-2H-pyrazol-3-yl)-1-(6-trifluoromethyl-pyridin-3-yl)-1H-pyridazin-4-one] as the compound, how does the IC50 read?
**A.** 72 nM

**Q.** `O=c1ccn(-c2ccc(C(F)(F)F)nc2)nc1-c1ccnn1-c1cccc2cnccc12` [Example 81, 3-(2-Isoquinolin-5-yl-2H-pyrazol-3-yl)-1-(6-trifluoromethyl-pyridin-3-yl)-1H-pyridazin-4-one] was tested. Which IC50 did it give?
**A.** 107 nM

**Q.** For `O=c1ccn(-c2cccnc2)nc1-c1ccnn1-c1cccc(F)c1` [Example 35, 3-[2-(3-Fluoro-phenyl)-2H-pyrazol-3-yl]-1-pyridin-3-yl-1H-pyridazin-4-one], which IC50 is on record?
**A.** 285 nM

**Q.** Which IC50 does the source give for `O=c1ccn(-c2cccnc2)nc1-c1ccnn1-c1cc(F)ccc1F` [Example 47, 3-[2-(2,5-Difluoro-phenyl)-2H-pyrazol-3-yl]-1-pyridin-3-yl-1H-pyridazin-4-one] here?
**A.** 352 nM

**Q.** How did the IC50 turn out when `N#Cc1cc(-n2ccc(=O)c(-c3ccnn3-c3ccc4c(c3)OCCO4)n2)ccn1` [Example 43, 4-{3-[2-(2,3-Dihydro-benzo[1,4]dioxin-6-yl)-2H-pyrazol-3-yl]-4-oxo-4H-pyridazin-1-yl}-pyridine-2-carbonitrile] was run?
**A.** 663 nM
